Measurements published in ChEMBL document CHEMBL1201862, “PubChem BioAssay data set” (2004).
Counter-ions that a name gives are not always drawn.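 Following 48 hours of exposure in 96-well plates, responses at five concentrations were used to interpolate endpoints linearly. Abbreviation: GI50, concentration required for 50% inhibition of growth.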 The source made the active and inactive calls. No stated cut-off is given here; in the data, active = GI50 up to about 1.1 µM and inactive = higher. Residues, ends and D or L forms follow the SMILES beside them. *: point of attachment. Tfa = O=C(C(F)(F)F)*

What was measured:
Experiment in all cases: inhibition of tumour cell growth, NCI panel, 48 h
U-251 = tested on: U-251
UO-31 = tested on: UO-31
SF-539 = tested on: SF-539
NCI-H522 = tested on: NCI-H522
SK-MEL-28 = tested on: SK-MEL-28
MDA-MB-435 = tested on: MDA-MB-435
HOP-92 = tested on: HOP-92
HL-60 = tested on: HL-60
NCI-H460 = tested on: NCI-H460
Hs-578T = tested on: Hs-578T
Malme-3M = tested on: Malme-3M
MDA-MB-231 = tested on: MDA-MB-231
A549 = tested on: A549
UACC-257 = tested on: UACC-257
A498 = tested on: A498
HCC 2998 = tested on: HCC 2998
HOP-62 = tested on: HOP-62
DU-145 = tested on: DU-145
COLO 205 = tested on: COLO 205

## CC(=O)NC1C(CO)O[C@@H]2OC(C)(C)O[C@H]12 (stereo partly specified)
U-251
  GI50: > 100 µM (inactive)
UO-31
  GI50: > 100 µM (inactive)
SF-539
  GI50: > 100 µM (inactive)
NCI-H522
  GI50: > 100 µM (inactive)
SK-MEL-28
  GI50: > 100 µM (inactive)
MDA-MB-435
  GI50: > 100 µM (inactive)
HOP-92
  GI50: > 100 µM (inactive)
HL-60
  GI50: > 100 µM (inactive)
NCI-H460
  GI50: > 100 µM (inactive)
Hs-578T
  GI50: > 100 µM (inactive)
Malme-3M
  GI50: > 100 µM (inactive)
MDA-MB-231
  GI50: > 100 µM (inactive)
A549
  GI50: > 100 µM (inactive)
UACC-257
  GI50: > 100 µM (inactive)
A498
  GI50: > 100 µM (inactive)
HCC 2998
  GI50: > 100 µM (inactive)
HOP-62
  GI50: > 100 µM (inactive)

## C=C1C(=O)O[C@H]2C1C[C@H](O)/C(C)=C/CC[C@@]1(C)O[C@H]21 (stereo partly specified)
U-251
  GI50: > 100 µM (inactive)
UO-31
  GI50: 14.8 µM (inactive)
NCI-H522
  GI50: 1.69 µM (inactive)
SK-MEL-28
  GI50: 23.8 µM (inactive)
DU-145
  GI50: 21.2 µM (inactive)
MDA-MB-435
  GI50: 17.8 µM (inactive)
HOP-92
  GI50: 17.3 µM (inactive)
NCI-H460
  GI50: > 10 µM (inactive)
Hs-578T
  GI50: 23.6 µM (inactive)
Malme-3M
  GI50: 6.14 µM (inactive)
COLO 205
  GI50: 0.782 µM (active)
MDA-MB-231
  GI50: 18.9 µM (inactive)
A549
  GI50: > 100 µM (inactive)
UACC-257
  GI50: 16.7 µM (inactive)
HCC 2998
  GI50: 14.4 µM (inactive)
HOP-62
  GI50: 33.7 µM (inactive)

## CC(C)(C)OC/C=C(\Br)CO
U-251
  GI50: > 100 µM (inactive)
UO-31
  GI50: > 100 µM (inactive)
SF-539
  GI50: > 100 µM (inactive)
SK-MEL-28
  GI50: > 100 µM (inactive)
DU-145
  GI50: > 100 µM (inactive)
MDA-MB-435
  GI50: > 100 µM (inactive)
NCI-H460
  GI50: > 100 µM (inactive)
Malme-3M
  GI50: > 100 µM (inactive)
COLO 205
  GI50: > 100 µM (inactive)
MDA-MB-231
  GI50: > 100 µM (inactive)
A549
  GI50: > 100 µM (inactive)
UACC-257
  GI50: > 100 µM (inactive)
A498
  GI50: > 100 µM (inactive)
HCC 2998
  GI50: > 100 µM (inactive)
HOP-62
  GI50: > 100 µM (inactive)

## CCCCCC(/C=C/C1CCC(=O)C1)OCOCCOC (stereo unspecified)
U-251
  GI50: 38.1 µM (inactive)
UO-31
  GI50: 17.9 µM (inactive)
SF-539
  GI50: 19.8 µM (inactive)
NCI-H522
  GI50: 17.1 µM (inactive)
SK-MEL-28
  GI50: > 77.3 µM (inactive)
DU-145
  GI50: > 100 µM (inactive)
MDA-MB-435
  GI50: 33.2 µM (inactive)
HOP-92
  GI50: 24.2 µM (inactive)
HL-60
  GI50: 42.1 µM (inactive)
NCI-H460
  GI50: 67.9 µM (inactive)
Malme-3M
  GI50: > 78.9 µM (inactive)
COLO 205
  GI50: 48.8 µM (inactive)
MDA-MB-231
  GI50: 69.8 µM (inactive)
A549
  GI50: 59.7 µM (inactive)
UACC-257
  GI50: 26.9 µM (inactive)
A498
  GI50: 48.2 µM (inactive)
HCC 2998
  GI50: 64.4 µM (inactive)
HOP-62
  GI50: > 100 µM (inactive)

## CN(C)CCCNC(=O)c1cc(NC(=O)c2cc(NC(=O)[C@@H]3C[C@H]3C(=O)Nc3cc(C(=O)Nc4cc(C(=O)NCCCN(C)C)n(C)c4)n(C)c3)cn2C)cn1C
U-251
  GI50: > 100 µM (inactive)
SF-539
  GI50: > 100 µM (inactive)
NCI-H522
  GI50: > 100 µM (inactive)
SK-MEL-28
  GI50: > 100 µM (inactive)
DU-145
  GI50: > 100 µM (inactive)
MDA-MB-435
  GI50: > 100 µM (inactive)
HOP-92
  GI50: > 100 µM (inactive)
HL-60
  GI50: > 100 µM (inactive)
NCI-H460
  GI50: > 100 µM (inactive)
Malme-3M
  GI50: > 100 µM (inactive)
COLO 205
  GI50: > 100 µM (inactive)
MDA-MB-231
  GI50: > 100 µM (inactive)
A549
  GI50: > 100 µM (inactive)
UACC-257
  GI50: > 100 µM (inactive)
HCC 2998
  GI50: 20.9 µM (inactive)
HOP-62
  GI50: > 100 µM (inactive)

## Cc1ccccc1-c1nc2c(N)nc(N)nc2nc1N
U-251
  GI50: 4.33 µM (inactive)
UO-31
  GI50: 12 µM (inactive)
SF-539
  GI50: 22.5 µM (inactive)
NCI-H522
  GI50: 22.6 µM (inactive)
SK-MEL-28
  GI50: 67.9 µM (inactive)
DU-145
  GI50: 8.17 µM (inactive)
MDA-MB-435
  GI50: 5.36 µM (inactive)
HL-60
  GI50: > 100 µM (inactive)
NCI-H460
  GI50: 3.69 µM (inactive)
Hs-578T
  GI50: > 100 µM (inactive)
COLO 205
  GI50: 25.5 µM (inactive)
MDA-MB-231
  GI50: 3.3 µM (inactive)
A549
  GI50: 3.22 µM (inactive)
UACC-257
  GI50: 86.3 µM (inactive)
HCC 2998
  GI50: 25.2 µM (inactive)
HOP-62
  GI50: 25.9 µM (inactive)

## CC(C)[C@@H]1NC(=O)[C@H]2N=C(O[C@@H]2C)[C@@H]2CCCN2C(=O)[C@H](Cc2ccccc2)NC(=O)[C@@H]2CSC(=N2)[C@@H](Cc2ccccc2)NC(=O)[C@@H]2CSC1=N2
U-251
  GI50: > 50 µM (inactive)
UO-31
  GI50: > 50 µM (inactive)
SF-539
  GI50: 17.5 µM (inactive)
NCI-H522
  GI50: 29.1 µM (inactive)
SK-MEL-28
  GI50: > 50 µM (inactive)
DU-145
  GI50: > 50 µM (inactive)
MDA-MB-435
  GI50: 36.4 µM (inactive)
HL-60
  GI50: 7.46 µM (inactive)
Hs-578T
  GI50: 32.8 µM (inactive)
Malme-3M
  GI50: > 50 µM (inactive)
COLO 205
  GI50: 24.7 µM (inactive)
MDA-MB-231
  GI50: > 50 µM (inactive)
A549
  GI50: 18.7 µM (inactive)
UACC-257
  GI50: > 50 µM (inactive)
HCC 2998
  GI50: 21.9 µM (inactive)
HOP-62
  GI50: > 50 µM (inactive)

## O=C(O)CC(NC(=O)C(F)(F)F)C(=O)NC(Cc1ccc(O)cc1)C(=O)O (stereo not drawn) (Tfa-Asp-Tyr-OH; configuration not given here)
U-251
  GI50: > 50 µM (inactive)
UO-31
  GI50: > 50 µM (inactive)
SF-539
  GI50: > 50 µM (inactive)
NCI-H522
  GI50: > 50 µM (inactive)
SK-MEL-28
  GI50: > 50 µM (inactive)
DU-145
  GI50: > 50 µM (inactive)
MDA-MB-435
  GI50: > 50 µM (inactive)
HOP-92
  GI50: > 50 µM (inactive)
NCI-H460
  GI50: > 50 µM (inactive)
Hs-578T
  GI50: > 50 µM (inactive)
Malme-3M
  GI50: > 50 µM (inactive)
COLO 205
  GI50: > 50 µM (inactive)
MDA-MB-231
  GI50: > 50 µM (inactive)
A549
  GI50: > 50 µM (inactive)
UACC-257
  GI50: > 50 µM (inactive)
HCC 2998
  GI50: > 50 µM (inactive)
HOP-62
  GI50: > 50 µM (inactive)
